# Patent US20100151452A1, “Methods and Systems for Searching for Regulators of the Fer Protein and for Monitoring the Effects of the Fer Protein” (priority 2006, published 2010)
# Test system: CDK2
# Assay: Western blot of CDK2 level
# Assay type: cell-based, human
# Details: PC3 cells, simultaneous exposure to fer-siRNA and cycloheximide 10 μg/ml 4 h
# Procedure: For treatment with cycloheximide, PC3 cells transfected with siRNA for 72 h, were subjected to 10 μg/ml cycloheximide for additional 4 h, at the end of the transfection process.
# Whole cell lysates (WCL) were prepared as described before (Salem et al., 2005). For Western blot analysis, 20-30 μg proteins from each sample were resolved in 7-12% SDS-PAGE. Electroblotted proteins were detected using specific anti-Fer antibodies (Priel-Halachmi et al., 2000), anti-CDK2 (sc-6248, Santa Cruz), anti-CDK1 (sc-54, Santa Cruz), anti-CDK4 (610148, BD Biosciences), anti-CDK6 (554086, BD Biosciences), anti-CDK7 (sc-856, Santa Cruz), anti-cyclin A (sc-751, Santa Cruz), anti-cyclin D1 (sc-6281, Santa Cruz), anti-cyclin E (sc-247, Santa Cruz), anti-cyclin H (sc-1662, Santa Cruz), anti-pRB (sc-102, Santa Cruz), anti-phosphosthreonine^821-pRB (pThr821) (44-582, Biosource), anti-phosphoserine^795-pRB (pSer795) (sc-7986-R, Santa Cruz), anti-phosphoserine^780-pRB (pSer780) (9307, Cell Signaling), anti-phosphoserine^807/811-pRB (pSer807/811) (9308, Cell Signaling), anti-PP1α (2582, Cell Signaling), anti-PP1 (sc-443, Santa Cruz), anti-phosphothreonine^320-PP1α (pThr320) (2581, Cell Signaling), anti-p21Cip1 (sc-6246, Santa Cruz), anti-p27Kip1 (sc-528, Santa Cruz), anti-HA (NMS-101R, Covance), anti-Myc (13-2500, Zymed), and anti-Actin antibody (A 4700, Sigma). […]
structure (smiles),measurement,value
C[C@@H]1C[C@@H]([C@H](O)CC2CC(=O)NC(=O)C2)C(=O)[C@@H](C)C1 [cycloheximide],effect on the fer-siRNA induced decrease of the level of CDK2,alleviated this effect
